# Results: ChEMBL document CHEMBL6114958, “Progress in the study of anti-Alzheimer's disease activity of pyrimidine-containing bioactive molecules” (Eur J Med Chem, 2025)
# Columns and labels:
# Cholinesterase [1] = target: Cholinesterase (Equus caballus, UniProt P81908); assay: Inhibition of equine serum BChE using butyrylthiocholine iodide measured after 25 mins by Ellman's spectrophotometric method
# Cholinesterase [2] = target: T1, Cholinesterase (Homo sapiens, UniProt P06276); assay: Inhibition of human BChE by Ellman's method
# Acetylcholinesterase [3] = target: T2, Acetylcholinesterase (Homo sapiens, UniProt P22303); assay: Inhibition of AChE (unknown origin) using acetylthiocholine iodide as substrate by Ellman's method
# Acetylcholinesterase [4] = target: T2, Acetylcholinesterase; assay: Inhibition of human AChE by Ellman's method
# [5] = target: High affinity cGMP-specific 3',5'-cyclic phosphodiesterase 9A (Homo sapiens, UniProt O76083); assay: Inhibition of PDE9 (unknown origin)
# Histone deacetylase 1 = Histone deacetylase 1 (Homo sapiens, UniProt Q13547); assay: Inhibition of HDAC1 (unknown origin)
# Histone deacetylase 2 = Histone deacetylase 2 (Homo sapiens, UniProt Q92769); assay: Inhibition of HDAC2 (unknown origin)
# [6] = target: T3, Protein deacetylase HDAC6 (Homo sapiens, UniProt Q9UBN7); assay: Inhibition of HDAC6 (unknown origin)
# T3 sequence (Q9UBN7 whole entry): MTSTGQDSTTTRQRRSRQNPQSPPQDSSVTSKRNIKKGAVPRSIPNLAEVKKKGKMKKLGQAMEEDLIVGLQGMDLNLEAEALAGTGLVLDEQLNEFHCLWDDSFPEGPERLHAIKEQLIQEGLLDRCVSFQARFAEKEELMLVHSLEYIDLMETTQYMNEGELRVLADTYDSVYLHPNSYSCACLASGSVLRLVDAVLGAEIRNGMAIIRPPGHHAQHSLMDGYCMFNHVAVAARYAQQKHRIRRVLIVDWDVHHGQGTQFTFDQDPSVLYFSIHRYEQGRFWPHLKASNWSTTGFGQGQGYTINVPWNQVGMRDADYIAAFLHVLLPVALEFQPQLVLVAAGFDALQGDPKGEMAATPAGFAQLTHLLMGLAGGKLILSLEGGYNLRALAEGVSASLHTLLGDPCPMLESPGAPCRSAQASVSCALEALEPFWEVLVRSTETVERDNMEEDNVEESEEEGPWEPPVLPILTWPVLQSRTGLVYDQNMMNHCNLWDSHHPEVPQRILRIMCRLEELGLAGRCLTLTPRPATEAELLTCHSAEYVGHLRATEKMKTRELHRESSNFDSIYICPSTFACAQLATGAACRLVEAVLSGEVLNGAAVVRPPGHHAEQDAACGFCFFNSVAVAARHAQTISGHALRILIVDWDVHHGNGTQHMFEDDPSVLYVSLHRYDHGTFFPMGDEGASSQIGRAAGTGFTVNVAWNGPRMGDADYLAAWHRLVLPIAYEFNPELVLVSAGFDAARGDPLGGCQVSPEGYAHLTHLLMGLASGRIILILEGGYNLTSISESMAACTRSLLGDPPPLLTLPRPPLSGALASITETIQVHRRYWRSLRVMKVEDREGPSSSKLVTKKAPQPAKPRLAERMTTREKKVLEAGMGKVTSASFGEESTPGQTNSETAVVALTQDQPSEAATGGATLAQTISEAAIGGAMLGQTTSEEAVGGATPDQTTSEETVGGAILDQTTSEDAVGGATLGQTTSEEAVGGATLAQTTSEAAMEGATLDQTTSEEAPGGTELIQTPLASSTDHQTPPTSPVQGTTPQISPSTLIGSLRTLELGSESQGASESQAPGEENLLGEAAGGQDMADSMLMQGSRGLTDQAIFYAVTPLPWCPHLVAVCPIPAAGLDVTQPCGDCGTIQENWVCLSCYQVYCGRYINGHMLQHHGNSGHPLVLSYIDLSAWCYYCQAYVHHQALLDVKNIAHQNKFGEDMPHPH
# [7] = target: Acetylcholinesterase (Electrophorus electricus) (UniProt O42275); assay: Inhibition of electric eel AChE using acetylthiocholine as substrate at 9 uM by Ellman's spectrophotometric method relative to control
# Acetylcholinesterase [8] = target: T2, Acetylcholinesterase; assay: Inhibition of recombinant human AChE using acetylthiocholine iodide as substrate by Ellman's method
# [9] = Inhibition of Cysteine asparaginase (unknown origin); set-up: species or system Homo sapiens
# Acetylcholinesterase [10] = target: T2, Acetylcholinesterase; assay: Inhibition of AChE (unknown origin)
# [11] = Inhibition of Calcium channel (unknown origin); set-up: species or system Homo sapiens
# Cholinesterase [12] = target: T1, Cholinesterase; assay: Inhibition of BChE (unknown origin)
# [13] = target: T4, Amine oxidase [flavin-containing] A (Homo sapiens, UniProt P21397); assay: Inhibition of recombinant human MAO-A assessed as fluorescence measured after 30 mins by Amplex Red reagent assay
# T4 sequence (P21397 whole entry): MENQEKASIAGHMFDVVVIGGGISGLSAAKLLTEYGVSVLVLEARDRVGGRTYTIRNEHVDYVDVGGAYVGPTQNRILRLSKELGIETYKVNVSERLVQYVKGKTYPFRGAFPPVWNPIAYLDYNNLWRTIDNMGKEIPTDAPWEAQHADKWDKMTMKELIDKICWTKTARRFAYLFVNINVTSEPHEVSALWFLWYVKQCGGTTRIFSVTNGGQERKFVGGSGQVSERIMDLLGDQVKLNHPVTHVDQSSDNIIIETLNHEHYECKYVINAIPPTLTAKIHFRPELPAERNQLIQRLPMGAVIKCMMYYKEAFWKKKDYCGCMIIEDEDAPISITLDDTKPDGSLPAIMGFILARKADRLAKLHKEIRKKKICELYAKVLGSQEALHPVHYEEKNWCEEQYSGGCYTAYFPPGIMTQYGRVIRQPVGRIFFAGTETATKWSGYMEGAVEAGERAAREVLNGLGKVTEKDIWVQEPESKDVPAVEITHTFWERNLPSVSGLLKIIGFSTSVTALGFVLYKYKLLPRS
# [14] = target: T5, Amine oxidase [flavin-containing] B (Homo sapiens, UniProt P27338); assay: Inhibition of recombinant human MAO-B assessed as fluorescence measured after 30 mins by Amplex Red reagent assay
# T5 sequence (P27338 whole entry): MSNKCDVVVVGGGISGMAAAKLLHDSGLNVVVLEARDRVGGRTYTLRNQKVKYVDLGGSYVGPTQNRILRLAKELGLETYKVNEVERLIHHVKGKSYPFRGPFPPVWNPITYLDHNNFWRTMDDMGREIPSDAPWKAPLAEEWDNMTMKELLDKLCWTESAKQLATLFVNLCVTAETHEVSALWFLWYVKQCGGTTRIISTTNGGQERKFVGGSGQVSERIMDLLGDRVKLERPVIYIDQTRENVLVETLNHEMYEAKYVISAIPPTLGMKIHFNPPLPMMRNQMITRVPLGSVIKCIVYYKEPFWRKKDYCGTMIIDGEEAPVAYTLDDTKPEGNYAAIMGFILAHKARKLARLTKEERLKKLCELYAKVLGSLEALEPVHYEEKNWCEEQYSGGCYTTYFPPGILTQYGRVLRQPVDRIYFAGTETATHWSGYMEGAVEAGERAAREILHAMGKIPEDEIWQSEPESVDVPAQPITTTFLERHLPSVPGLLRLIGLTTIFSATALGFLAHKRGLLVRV
# Acetylcholinesterase [15] = target: T2, Acetylcholinesterase; assay: Inhibition of Acetylcholinesterase (unknown origin) activity measured after 15 mins by Amplex Red reagent assay
# [16] = target: T4, Amine oxidase [flavin-containing] A; assay: Inhibition of human MAO-A
# [17] = target: T5, Amine oxidase [flavin-containing] B; assay: Inhibition of human MAO-B
# Acetylcholinesterase [18] = target: T6, Acetylcholinesterase (Electrophorus electricus, UniProt O42275); assay: Inhibition of electric eel AChE
# Beta-secretase 1 = Beta-secretase 1 (Homo sapiens, UniProt P56817); assay: Inhibition of BACE1 (unknown origin)
# Acetylcholinesterase [19] = target: T6, Acetylcholinesterase; assay: Inhibition of electric eel AChE using ACTI as substrate measured after 30 mins by spectrometric analysis
# Cholinesterase [20] = target: T1, Cholinesterase; assay: Inhibition of BChE (unknown origin) using butyrylthiocholine iodide as substrate by Ellman's method
# Chain of High affinity cGMP-specific 3',5'-cyclic phosphodiesterase 9A (O76083 whole entry): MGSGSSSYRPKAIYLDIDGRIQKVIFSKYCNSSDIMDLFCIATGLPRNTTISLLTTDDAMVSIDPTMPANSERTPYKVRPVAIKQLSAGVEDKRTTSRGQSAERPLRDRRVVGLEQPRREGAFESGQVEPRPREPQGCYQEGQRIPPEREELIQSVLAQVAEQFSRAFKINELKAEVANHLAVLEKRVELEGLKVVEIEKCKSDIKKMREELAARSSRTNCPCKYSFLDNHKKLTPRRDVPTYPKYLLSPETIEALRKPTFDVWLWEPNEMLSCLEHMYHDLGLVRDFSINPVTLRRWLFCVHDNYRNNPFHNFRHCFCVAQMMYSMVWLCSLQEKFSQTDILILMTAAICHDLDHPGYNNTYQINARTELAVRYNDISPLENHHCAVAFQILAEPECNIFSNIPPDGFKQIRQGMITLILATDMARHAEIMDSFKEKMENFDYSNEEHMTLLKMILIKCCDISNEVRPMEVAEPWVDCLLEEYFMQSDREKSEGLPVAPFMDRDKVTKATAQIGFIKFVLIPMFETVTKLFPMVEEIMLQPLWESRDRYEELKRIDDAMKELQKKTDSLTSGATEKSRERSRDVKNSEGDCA
# Chain of Histone deacetylase 2 (Q92769 whole entry): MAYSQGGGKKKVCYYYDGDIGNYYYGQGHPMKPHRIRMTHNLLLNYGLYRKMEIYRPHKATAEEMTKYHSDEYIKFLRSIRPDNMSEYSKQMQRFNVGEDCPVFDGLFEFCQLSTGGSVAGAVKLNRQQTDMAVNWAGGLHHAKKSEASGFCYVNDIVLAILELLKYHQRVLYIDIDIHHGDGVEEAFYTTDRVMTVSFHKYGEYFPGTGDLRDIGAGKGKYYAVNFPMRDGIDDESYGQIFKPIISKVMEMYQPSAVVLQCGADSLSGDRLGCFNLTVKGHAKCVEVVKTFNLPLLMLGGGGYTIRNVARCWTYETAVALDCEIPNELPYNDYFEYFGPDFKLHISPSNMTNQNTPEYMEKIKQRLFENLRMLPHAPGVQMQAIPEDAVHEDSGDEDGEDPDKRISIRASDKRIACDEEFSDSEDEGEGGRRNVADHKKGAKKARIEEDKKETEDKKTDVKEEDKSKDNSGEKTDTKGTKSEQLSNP
# Chain of Histone deacetylase 1 (Q13547 whole entry): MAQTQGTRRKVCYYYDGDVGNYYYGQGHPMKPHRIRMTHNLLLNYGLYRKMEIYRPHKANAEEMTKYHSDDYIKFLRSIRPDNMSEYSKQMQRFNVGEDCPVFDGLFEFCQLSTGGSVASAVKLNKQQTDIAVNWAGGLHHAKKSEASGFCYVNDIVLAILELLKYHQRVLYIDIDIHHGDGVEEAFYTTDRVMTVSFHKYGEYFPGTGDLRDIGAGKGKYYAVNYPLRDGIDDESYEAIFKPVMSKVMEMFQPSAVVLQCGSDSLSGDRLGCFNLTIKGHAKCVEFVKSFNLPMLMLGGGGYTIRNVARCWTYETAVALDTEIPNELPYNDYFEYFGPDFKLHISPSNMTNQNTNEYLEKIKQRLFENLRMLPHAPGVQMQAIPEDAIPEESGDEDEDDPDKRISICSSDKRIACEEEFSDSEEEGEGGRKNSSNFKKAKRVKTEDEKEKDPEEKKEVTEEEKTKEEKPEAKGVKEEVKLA
# T2 sequence (P22303 whole entry): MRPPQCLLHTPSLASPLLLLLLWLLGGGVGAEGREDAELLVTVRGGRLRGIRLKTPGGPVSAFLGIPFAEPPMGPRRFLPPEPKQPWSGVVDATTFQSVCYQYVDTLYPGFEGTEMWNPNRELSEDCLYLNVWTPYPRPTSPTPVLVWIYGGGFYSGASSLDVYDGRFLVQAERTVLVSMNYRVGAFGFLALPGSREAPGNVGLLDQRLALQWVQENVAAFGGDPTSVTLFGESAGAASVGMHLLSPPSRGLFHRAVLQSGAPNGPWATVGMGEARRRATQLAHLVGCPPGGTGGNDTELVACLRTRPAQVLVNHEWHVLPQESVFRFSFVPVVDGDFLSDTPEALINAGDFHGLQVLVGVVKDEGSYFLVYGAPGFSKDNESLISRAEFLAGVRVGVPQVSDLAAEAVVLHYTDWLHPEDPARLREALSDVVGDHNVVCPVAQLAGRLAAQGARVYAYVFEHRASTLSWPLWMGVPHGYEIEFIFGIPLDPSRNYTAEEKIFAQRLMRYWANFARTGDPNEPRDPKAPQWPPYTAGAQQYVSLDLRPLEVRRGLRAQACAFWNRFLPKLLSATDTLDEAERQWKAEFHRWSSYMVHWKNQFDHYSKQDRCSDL
# T1 sequence (P06276 whole entry): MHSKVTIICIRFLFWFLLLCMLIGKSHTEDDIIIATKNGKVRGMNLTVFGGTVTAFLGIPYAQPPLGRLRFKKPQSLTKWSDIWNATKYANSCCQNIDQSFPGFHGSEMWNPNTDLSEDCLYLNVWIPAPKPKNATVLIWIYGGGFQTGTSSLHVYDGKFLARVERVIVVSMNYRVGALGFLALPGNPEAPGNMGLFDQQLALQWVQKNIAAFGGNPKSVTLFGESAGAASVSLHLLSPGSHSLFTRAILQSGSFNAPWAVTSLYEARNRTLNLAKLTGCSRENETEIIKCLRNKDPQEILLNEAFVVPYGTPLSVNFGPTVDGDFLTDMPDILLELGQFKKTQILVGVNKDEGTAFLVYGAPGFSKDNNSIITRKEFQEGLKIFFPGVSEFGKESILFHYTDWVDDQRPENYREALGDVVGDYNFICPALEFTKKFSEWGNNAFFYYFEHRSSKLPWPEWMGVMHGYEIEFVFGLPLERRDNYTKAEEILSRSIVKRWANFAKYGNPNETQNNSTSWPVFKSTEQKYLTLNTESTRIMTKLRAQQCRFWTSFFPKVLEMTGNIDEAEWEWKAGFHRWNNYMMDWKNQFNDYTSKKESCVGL
# T6 sequence (O42275 whole entry): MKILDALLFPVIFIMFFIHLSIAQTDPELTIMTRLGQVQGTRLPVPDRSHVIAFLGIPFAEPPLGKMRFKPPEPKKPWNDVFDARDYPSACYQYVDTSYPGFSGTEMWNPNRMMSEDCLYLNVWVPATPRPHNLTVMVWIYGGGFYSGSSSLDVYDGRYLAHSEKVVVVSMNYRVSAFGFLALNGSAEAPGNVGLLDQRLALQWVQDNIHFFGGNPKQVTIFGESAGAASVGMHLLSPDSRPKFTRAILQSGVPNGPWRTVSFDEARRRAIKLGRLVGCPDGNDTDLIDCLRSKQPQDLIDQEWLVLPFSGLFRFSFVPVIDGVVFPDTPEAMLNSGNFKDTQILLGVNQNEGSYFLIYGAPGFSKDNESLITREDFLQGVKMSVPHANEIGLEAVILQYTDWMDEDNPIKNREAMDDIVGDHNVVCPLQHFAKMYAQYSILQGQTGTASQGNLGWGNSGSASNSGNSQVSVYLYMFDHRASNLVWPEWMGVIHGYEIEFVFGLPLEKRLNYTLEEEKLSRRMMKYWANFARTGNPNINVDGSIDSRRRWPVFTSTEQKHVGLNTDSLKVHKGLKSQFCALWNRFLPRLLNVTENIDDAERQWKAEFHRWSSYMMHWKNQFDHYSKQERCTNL
# Chain of Cholinesterase (Equus caballus, UniProt P81908) (P81908 whole entry): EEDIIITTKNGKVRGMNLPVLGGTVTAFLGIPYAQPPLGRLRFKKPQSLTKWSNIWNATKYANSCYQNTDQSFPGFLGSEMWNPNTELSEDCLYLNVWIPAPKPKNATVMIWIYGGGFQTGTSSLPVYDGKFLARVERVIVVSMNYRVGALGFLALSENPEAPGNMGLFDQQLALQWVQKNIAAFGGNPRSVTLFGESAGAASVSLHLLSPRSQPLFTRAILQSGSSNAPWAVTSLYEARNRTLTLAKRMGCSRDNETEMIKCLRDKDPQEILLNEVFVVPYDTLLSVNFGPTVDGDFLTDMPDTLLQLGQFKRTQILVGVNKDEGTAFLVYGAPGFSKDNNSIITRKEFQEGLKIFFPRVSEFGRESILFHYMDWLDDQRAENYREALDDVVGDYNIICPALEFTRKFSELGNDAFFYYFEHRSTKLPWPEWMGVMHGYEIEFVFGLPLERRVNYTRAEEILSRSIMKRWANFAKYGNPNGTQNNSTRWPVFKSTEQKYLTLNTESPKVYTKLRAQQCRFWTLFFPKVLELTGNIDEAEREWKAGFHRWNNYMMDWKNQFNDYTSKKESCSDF
# Chain of Acetylcholinesterase (Electrophorus electricus) (O42275 24-633 limits assumed): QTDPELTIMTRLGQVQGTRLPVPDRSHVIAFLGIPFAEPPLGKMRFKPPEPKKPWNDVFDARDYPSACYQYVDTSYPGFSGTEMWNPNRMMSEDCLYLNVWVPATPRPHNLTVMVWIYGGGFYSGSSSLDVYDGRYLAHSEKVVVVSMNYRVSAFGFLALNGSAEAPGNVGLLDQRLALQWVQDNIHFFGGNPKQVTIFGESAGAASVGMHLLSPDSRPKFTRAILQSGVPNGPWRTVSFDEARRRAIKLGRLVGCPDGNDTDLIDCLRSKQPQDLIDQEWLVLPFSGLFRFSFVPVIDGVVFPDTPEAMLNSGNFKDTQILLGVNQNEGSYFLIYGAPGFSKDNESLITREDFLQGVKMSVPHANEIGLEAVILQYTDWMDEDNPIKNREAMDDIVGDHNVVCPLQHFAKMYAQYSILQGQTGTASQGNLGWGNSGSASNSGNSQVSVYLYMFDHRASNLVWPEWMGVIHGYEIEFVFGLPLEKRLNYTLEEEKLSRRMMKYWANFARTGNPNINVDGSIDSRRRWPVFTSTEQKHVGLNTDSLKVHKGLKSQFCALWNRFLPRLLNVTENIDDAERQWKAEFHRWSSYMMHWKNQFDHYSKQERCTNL
compound,measurement,setting,value
COC(=O)/C1=C/N(C(C)C)CCc2nc(-c3ccccc3)[nH]c(=O)c2C1,IC50,Cholinesterase [1],1300 nM
N#CC1C(N)N2CCCNC2C(C#N)C12C(=O)Nc1ccc(Br)cc12 (stereo not drawn),IC50,Cholinesterase [2],17500 nM
COc1cccc(-c2nc(SCCCSc3nc(N)c(C#N)c(-c4cccc(OC)c4)n3)nc(N)c2C#N)c1,IC50,Acetylcholinesterase [3],5720 nM
Cc1ccc(O)c(CNc2c(N)n(C)c(=O)n(C)c2=O)c1,IC50,Acetylcholinesterase [4],4.65 nM
CC(c1nc2c(cnn2C2CCCC2)c(=O)[nH]1)C1CC(Cc2ccc(C(=O)NO)cc2)C1 (stereo not drawn),IC50,[5],107 nM
same,IC50,Histone deacetylase 1,593 nM
same,IC50,Histone deacetylase 2,3530 nM
same,IC50,[6],40 nM
N#CC1C(N)N2CCCNC2C(C#N)C12C(=O)Nc1ccccc12 (stereo not drawn),IC50,Acetylcholinesterase [4],4040 nM
c1ccc(CNCCCCCCNc2ncccn2)cc1,inhibition,[7],92.9%
CCN(CCCCCn1c(C)cc(=O)n(CCCCCN(CC)Cc2cccc(C(=O)OC)c2)c1=O)Cc1cccc(C(=O)OC)c1,IC50,Acetylcholinesterase [8],290 nM
CC1(C)CC(=O)c2c(N)nc(Nc3ccccc3)nc2C1,IC50,[9],22 nM
CCOC(=O)C1=C(C)N=C2SC(c3ccc([N+](=O)[O-])cc3)=NN2C1c1ccc(C=O)cn1 (stereo not drawn),IC50,Acetylcholinesterase [10],82 nM
CCOC(=O)C1=C(C)N(CCC2CCN(Cc3ccccc3)CC2)C(=O)NC1c1coc2c(Cl)cc(Cl)cc2c1=O (stereo not drawn),IC50,[11],1400 nM
C[C@@H]1CN(Cc2ccc(CC(=O)CNO)cc2)C[C@H]1c1nc2c(cnn2C2CCOCC2)c(=O)[nH]1,IC50,[5],8 nM
same,IC50,Histone deacetylase 1,138 nM
same,IC50,Histone deacetylase 2,1250 nM
same,IC50,[6],508 nM
Cc1cccc(-c2nccc(N3CCOCC3)n2)c1,IC50,Acetylcholinesterase [10],430 nM
same,IC50,Cholinesterase [12],2500 nM
C#CCNc1ccc(-c2cc(-c3ccc(OCCN4CCOCC4)cc3)nc(N)n2)cc1,IC50,[13],9940 nM
same,IC50,[14],40 nM
same,IC50,Acetylcholinesterase [15],7210 nM
C#CCCCOc1ccc(-c2cc(-c3ccc(OCCN4CCOCC4)cc3)nc(-c3ccccc3)n2)cc1,IC50,[16],740 nM
same,IC50,[17],8600 nM
same,IC50,Acetylcholinesterase [18],17500 nM
CCN(CCCCCn1c(C)cc(=O)n(CCCCCN(CC)Cc2ccccc2C#N)c1=O)Cc1ccccc1C#N,IC50,Acetylcholinesterase [8],7300 nM
COc1cccc(-c2csc(NC(=O)CSc3nc(N)cc(N)n3)n2)c1,IC50,Beta-secretase 1,1400 nM
CC(c1nc2c(cnn2C2CCCC2)c(=O)[nH]1)N1CC(Cc2ccc(C(=O)Nc3ccccc3N)cc2)C1 (stereo not drawn),IC50,[5],57 nM
same,IC50,Histone deacetylase 1,99 nM
same,IC50,Histone deacetylase 2,545 nM
same,IC50,[6],> 10000 nM
C#CCCCOc1ccc(-c2cc(-c3ccc(OCCN4CCCC4)cc3)nc(-c3ccccc3)n2)cc1,IC50,[16],750 nM
same,IC50,[17],> 50000 nM
same,IC50,Acetylcholinesterase [18],2190 nM
C#CCOc1ccc(-c2cc(-c3ccc(OCCN4CCOCC4)cc3)nc(N)n2)cc1,IC50,[13],18 nM
same,IC50,[14],> 50000 nM
same,IC50,Acetylcholinesterase [15],30500 nM
COc1cccc(C2C3=C(CCCC3=O)Oc3nc(C)[nH]c(=O)c32)c1 (stereo not drawn),IC50,Acetylcholinesterase [19],6500 nM
O=C(NCCCCCCNc1ncccn1)c1ccccc1,inhibition,[7],2.5%
N#Cc1c(N)nc(SCCCSc2nc(N)c(C#N)c(-c3ccc(Br)cc3)n2)nc1-c1ccc(Br)cc1,IC50,Cholinesterase [20],12200 nM
CN(CCCOc1ccc([N+](=O)[O-])cc1)C(=O)c1cnc(N2CCN(c3ccc(C(=O)N4CCOCC4)cc3[N+](=O)[O-])CC2)nc1,IC50,Acetylcholinesterase [8],900 nM
CCN(CC)CCCNC1NC(c2ccccc2)=NC2=C1C/C(C(=O)OC)=C\N(C(C)C)CC2 (stereo not drawn),IC50,Cholinesterase [1],105 nM
